Target: T1, human GRP receptor (BB2) (Homo sapiens, UniProt P30550)
T1 construct: expressed in transfected cells
Test: BB2 binding assay ([125I][Tyr4]bombesin, CHO-K1 cell membranes)
Conditions: Table 3; N-acyl derivatives
Description: In the following experiments, measurement of BB1 and BB2 binding was as follows. […] The final pellet was resuspended in assay buffer to a final cell concentration of 1.5 × 10^5/mL. […] Nonspecific binding was defined by 1µM bombesin. […] Radioactivity bound was determined using a gamma counter.
All competition data was analysed using nonlinear regression utilizing iterative curve-plotting procedures in Prism® (GraphPad Software Inc., San Diego, USA).

T1 sequence (P30550 whole entry): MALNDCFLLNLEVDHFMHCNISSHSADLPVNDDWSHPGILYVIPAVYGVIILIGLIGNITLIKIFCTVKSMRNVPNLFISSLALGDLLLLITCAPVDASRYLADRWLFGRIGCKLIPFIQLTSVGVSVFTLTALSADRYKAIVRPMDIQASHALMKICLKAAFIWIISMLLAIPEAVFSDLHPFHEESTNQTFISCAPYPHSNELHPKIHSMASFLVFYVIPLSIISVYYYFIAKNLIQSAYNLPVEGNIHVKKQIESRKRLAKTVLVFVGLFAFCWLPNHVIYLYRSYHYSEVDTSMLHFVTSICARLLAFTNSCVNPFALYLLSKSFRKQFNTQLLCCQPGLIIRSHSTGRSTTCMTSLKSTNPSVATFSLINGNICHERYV

| SMILES | IC50 [µM] |
| --- | --- |
| CN(C)c1ccccc1C(=O)N[C@@](C)(Cc1c[nH]c2ccccc12)C(=O)NCC1(c2ccccn2)CCCCC1 [Example 48, C-Dimethylamino-N-{(S)-2-(1H-indol-3-yl)-1-methyl-1-[(1-pyridin-2-yl-cyclohexyl-methyl)-carbamoyl]-ethyl}-benzamide] | > 10 |
| C[C@@](Cc1c[nH]c2ccccc12)(NC(=O)c1ccccn1)C(=O)NCC1(c2ccccn2)CCCCC1 [Example 57, Pyridine-2-carboxylic acid {(S)-2-(1H-indol-3-yl)-1-methyl-1-[(1-pyridin-2-yl-cyclohexylmethyl)-carbamoyl]-ethyl}-amide] | > 10 |
| C[C@@](Cc1c[nH]c2ccccc12)(NC(=O)c1ccoc1)C(=O)NCC1(c2ccccn2)CCCCC1 [Example 59, Furan-3-carboxylic acid {(S)-2-(1H-indol-3-yl)-1-methyl-1-[(1-pyridin-2-yl-cyclohexylmethyl)-carbamoyl]-ethyl}-amide] | > 10 |
| C[C@@](Cc1c[nH]c2ccccc12)(NC(=O)c1ccco1)C(=O)NCC1(c2ccccn2)CCCCC1 [Example 60, Furan-2-carboxylic acid {(S)-2-(1H-indol-3-yl)-1-methyl-1-[(1-pyridin-2-yl-cyclohexylmethyl)-carbamoyl]-ethyl}-amide] | > 10 |
| Cc1cc(C(=O)N[C@@](C)(Cc2c[nH]c3ccccc23)C(=O)NCC2(c3ccccn3)CCCCC2)no1 [Example 62, 5-Methyl-isoxazole-3-carboxylic acid {(S)-2-(1H-indol-3-yl)-1-methyl-1-[(1-pyridin-2-yl-cyclohexylmethyl)-carbamoyl]-ethyl}-amide] | > 10 |
| C[C@@](Cc1c[nH]c2ccccc12)(NC(=O)c1cnc2ccccc2n1)C(=O)NCC1(c2ccccn2)CCCCC1 [Example 78, Quinoxaline-2-carboxylic acid {(S)-2-(1H-indol-3-yl)-1-methyl-1-[(1-pyridin-2-yl-cyclohexylmethyl)-carbamoyl]-ethyl}-amide] | > 10 |

Same assay, conditions: Table 5; N-terminal urethane derivatives

| SMILES | IC50 [µM] |
| --- | --- |
| C[C@@](Cc1c[nH]c2ccccc12)(NC(=O)OCc1ccc(Cl)cc1Cl)C(=O)NCC1(c2ccccn2)CCCCC1 [Example 104, {(S)-2-(1H-Indol-3-yl)-1-methyl-1-[(1-pyridin-2-yl-cyclohexylmethyl)-carbamoyl]-ethyl}-carbamic acid 2,4-dichloro-benzyl ester] | > 10 |
| C[C@@](Cc1c[nH]c2ccccc12)(NC(=O)OCc1ccc2ncccc2c1)C(=O)NCC1(c2ccccn2)CCCCC1 [Example 110, {(S)-2-(1H-Indol-3-yl)-1-methyl-1-[(1-pyridin-2-yl-cyclohexylmethyl)-carbamoyl]-ethyl}-carbamic acid quinolin-6-ylmethyl ester] | > 10 |

Same assay, conditions: Table 7; N-terminal sulfonamide derivatives

| SMILES | IC50 [µM] | BB2 IC50 |
| --- | --- | --- |
| Cc1ccc(S(=O)(=O)N[C@@](C)(Cc2c[nH]c3ccccc23)C(=O)NCC2(c3ccccn3)CCCCC2)cc1 [Example 112, (S)-3-(1H-Indol-3-yl)-2-methyl-N-(1-pyridin-2-yl-cyclohexylmethyl)-2-(toluene-4-sulfonylamino)-propionamide] | > 10 | – |
| C[C@@](Cc1c[nH]c2ccccc12)(NS(=O)(=O)c1ccccc1F)C(=O)NCC1(c2ccccn2)CCCCC1 [Example 114, (S)-2-(2-Fluorobenzenesulfonylamino)-3-(1H-indol-3-yl)-2-methyl-N-(1-pyridin-2-yl-cyclohexylmethyl)-propionamide] | > 10 | – |
| CN(C)c1cccc2c(S(=O)(=O)N[C@@](C)(Cc3c[nH]c4ccccc34)C(=O)NCC3(c4ccccn4)CCCCC3)cccc12 [Example 117, (S)-2-(5-Dimethylamino-naphthalene-1-sulfonylamino)-3-(1H-indol-3-yl)-2-methyl-N-(1-pyridin-2-yl-cyclohexylmethyl)-propionamide] | > 10 | – |
| C[C@@](Cc1c[nH]c2ccccc12)(NS(=O)(=O)c1ccc2ccccc2c1)C(=O)NCC1(c2ccccn2)CCCCC1 [Example 118, (S)-3-(1H-Indol-3-yl)-2-methyl-2-(naphthalene-2-sulfonylamino)-N-(1-pyridin-2-yl-cyclohexylmethyl)-propionamide] | > 10 | – |
| C[C@@](Cc1c[nH]c2ccccc12)(NS(=O)(=O)c1cccs1)C(=O)NCC1(c2ccccn2)CCCCC1 [Example 119, (S)-3-(1H-Indol-3-yl)-2-methyl-N-(1-pyridin-2-yl-cyclohexylmethyl)-2-(thiophene-2-sulfonylamino)-propionamide] | – | Ia |
| C[C@@](Cc1c[nH]c2ccccc12)(NS(=O)(=O)c1ccc([N+](=O)[O-])cc1)C(=O)NCC1(c2ccccn2)CCCCC1 [Example 123, (S)-3-(1H-Indol-3-yl)-2-methyl-2-(4-nitro-benzenesulfonylamino)-N-(1-pyridin-2-yl-cyclohexylmethyl)-propionamide] | > 10 | – |
| C[C@@](Cc1c[nH]c2ccccc12)(NS(=O)(=O)c1ccc(Cl)c(Cl)c1)C(=O)NCC1(c2ccccn2)CCCCC1 [Example 125, (S)-2-(3,4-Dichloro-benzenesulfonylamino)-3-(1H-indol-3-yl)-2-methyl-N-(1-pyridin-2-yl-cyclohexylmethyl)-propionamide] | > 10 | – |
| C[C@@](Cc1c[nH]c2ccccc12)(NS(=O)(=O)c1ccc(C(F)(F)F)cc1)C(=O)NCC1(c2ccccn2)CCCCC1 [Example 127, (S)-3-(1H-Indol-3-yl)-2-methyl-N-(1-pyridin-2-yl-cyclohexylmethyl)-2-(4-trifluoromethyl-benzenesulfonylamino)-propionamide] | > 10 | – |
| C[C@@](Cc1c[nH]c2ccccc12)(NS(=O)(=O)c1ccc(Cl)s1)C(=O)NCC1(c2ccccn2)CCCCC1 [Example 128, (S)-2-(5-Chloro-thiophene-2-sulfonylamino)-3-(1H-indol-3-yl)-2-methyl-N-(1-pyridin-2-yl-cyclohexylmethyl)-propionamide] | > 10 | – |
| COc1ccc(S(=O)(=O)N[C@@](C)(Cc2c[nH]c3ccccc23)C(=O)NCC2(c3ccccn3)CCCCC2)cc1OC [Example 132, (S)-2-(3,4-Dimethoxy-benzenesulfonylamino)-3-(1H-indol-3-yl)-2-methyl-N-(1-pyridin-2-yl-cyclohexylmethyl)-propionamide] | > 10 | – |
| C[C@@](Cc1c[nH]c2ccccc12)(NS(=O)(=O)c1ccc(C#N)cc1)C(=O)NCC1(c2ccccn2)CCCCC1 [Example 133, (S)-2-(4-Cyano-benzenesulfonylamino)-3-(1H-indol-3-yl)-2-methyl-N-(1-pyridin-2-yl-cyclohexylmethyl)-propionamide] | > 10 | – |
| C[C@@](Cc1c[nH]c2ccccc12)(NS(=O)(=O)c1ccccc1C#N)C(=O)NCC1(c2ccccn2)CCCCC1 [Example 134, (S)-2-(2-Cyano-benzenesulfonylamino)-3-(1H-indol-3-yl)-2-methyl-N-(1-pyridin-2-yl-cyclohexylmethyl)-propionamide] | > 10 | – |
| Cc1nn(C)c(Cl)c1S(=O)(=O)N[C@@](C)(Cc1c[nH]c2ccccc12)C(=O)NCC1(c2ccccn2)CCCCC1 [Example 135, (S)-2-(5-Chloro-1,3-dimethyl-1H-pyrazole-4-sulfonylamino)-3-(1H-indol-3-yl)-2-methyl-N-(1-pyridin-2-yl-cyclohexylmethyl)-propionamide] | > 10 | – |
| Cc1noc(C)c1S(=O)(=O)N[C@@](C)(Cc1c[nH]c2ccccc12)C(=O)NCC1(c2ccccn2)CCCCC1 [Example 136, (S)-2-(3,5-Dimethyl-isoxazole-4-sulfonylamino)-3-(1H-indol-3-yl)-2-methyl-N-(1-pyridin-2-yl-cyclohexylmethyl)-propionamide] | > 10 | – |
| C[C@@](Cc1c[nH]c2ccccc12)(NS(=O)(=O)c1cccc2nsnc12)C(=O)NCC1(c2ccccn2)CCCCC1 [Example 137, (S)-2-(Benzo[1,2,5]thiadiazole-4-sulfonylamino)-3-(1H-indol-3-yl)-2-methyl-N-(1-pyridin-2-yl-cyclohexylmethyl)-propionamide] | > 10 | – |
| Cn1cnc(S(=O)(=O)N[C@@](C)(Cc2c[nH]c3ccccc23)C(=O)NCC2(c3ccccn3)CCCCC2)c1 [Example 138, (S)-3-(1H-Indol-3-yl)-2-methyl-2-(1-methyl-1H-imidazole-4-sulfonylamino)-N-(1-pyridin-2-yl-cyclohexylmethyl)-propionamide] | > 10 | – |
| C[C@@](Cc1c[nH]c2ccccc12)(NS(=O)(=O)c1cccc2nonc12)C(=O)NCC1(c2ccccn2)CCCCC1 [Example 139, (S)-2-(Benzo[1,2,5]oxadiazole-4-sulfonylamino)-3-(1H-indol-3-yl)-2-methyl-N-(1-pyridin-2-yl-cyclohexylmethyl)-propionamide] | > 10 | – |
| COC(=O)c1sccc1S(=O)(=O)N[C@@](C)(Cc1c[nH]c2ccccc12)C(=O)NCC1(c2ccccn2)CCCCC1 [Example 140, 3-{(S)-2-(1H-Indol-3-yl)-1-methyl-1-[(1-pyridin-2-yl-cyclohexylmethyl)-carbamoyl]-ethylsulfamoyl}-thiophene-2-carboxylic acid methyl ester] | > 10 | – |
| C[C@@](Cc1c[nH]c2ccccc12)(NS(=O)(=O)c1ccc(-c2ccon2)s1)C(=O)NCC1(c2ccccn2)CCCCC1 [Example 141, (S)-3-(1H-Indol-3-yl)-2-(5-isoxazol-3-yl-thiophene-2-sulfonylamino)-2-methyl-N-(1-pyridin-2-yl-cyclohexylmethyl)-propionamide] | > 10 | – |
| C[C@@](Cc1c[nH]c2ccccc12)(NS(=O)(=O)Cc1ccccc1[N+](=O)[O-])C(=O)NCC1(c2ccccn2)CCCCC1 [Example 142, (S)-3-(1H-Indol-3-yl)-2-methyl-2-(2-nitro-phenylmethanesulfonylamino)-N-(1-pyridin-2-yl-cyclohexylmethyl)-propionamide] | > 10 | – |
| C[C@@](Cc1c[nH]c2ccccc12)(NS(=O)(=O)c1cccc(C#N)c1)C(=O)NCC1(c2ccccn2)CCCCC1 [Example 143, (S)-2-(3-Cyano-benzenesulfonylamino)-3-(1H-indol-3-yl)-2-methyl-N-(1-pyridin-2-yl-cyclohexylmethyl)-propionamide] | > 10 | – |

From patent EP1333824B1, “TREATMENT OF SEXUAL DYSFUNCTION WITH BOMBESIN RECEPTOR ANTAGONISTS” (Warner-Lambert Company LLC, priority 2000, dated 2002)
